Test results reported in ChEMBL document CHEMBL4190365, “Synthesis and antiproliferative properties of new hydrophilic esters of triterpenic acids” (Eur J Med Chem, 2017).
pIC50: −log10 of the molar value.

Key:
Format in all cases: functional, cell-based
CCRF-CEM = test: Cytotoxicity in human CEM cells assessed as reduction in cell viability incubated for 72 hrs by calcein AM cytotoxicity assay
MCF7 = test: Cytotoxicity in human MCF7 cells assessed as reduction in cell viability incubated for 72 hrs by calcein AM cytotoxicity assay
HeLa = test: Cytotoxicity in human HeLa cells assessed as reduction in cell viability incubated for 72 hrs by calcein AM cytotoxicity assay
G-361 = test: Cytotoxicity in human G361 cells assessed as reduction in cell viability incubated for 72 hrs by calcein AM cytotoxicity assay
BJ = test: Cytotoxicity in human BJ cells assessed as reduction in cell viability incubated for 72 hrs by calcein AM cytotoxicity assay

Row | Compound | pIC50 (CCRF-CEM; Homo sapiens, CCRF-CEM, 72 h) | pIC50 (MCF7; Homo sapiens, MCF7, 72 h) | pIC50 (HeLa; Homo sapiens, HeLa, 72 h) | pIC50 (G-361; Homo sapiens, G-361, 72 h) | pIC50 (BJ; Homo sapiens, BJ, 72 h) | pIC50 (MCF7; mcf7) | pIC50 (HeLa; hela) | pIC50 (G-361; g-361) | pIC50 (BJ; bj) | pIC50 (CCRF-CEM; ccrf-cem)
1 | COCCOCCOC(=O)[C@]12CC[C@@H](C(C)C)[C@@H]1[C@H]1CC[C@@H]3[C@@]4(C)CC[C@H](O)C(C)(C)[C@@H]4CC[C@@]3(C)[C@]1(C)CC2 | 4.49 | 4.50 | 4.58 | 4.62 | 4.52 |  |  |  |  | 
2 | C=C(C)[C@@H]1CC[C@]2(C(=O)OCCN3CCCCC3)CC[C@]3(C)[C@H](CC[C@@H]4[C@@]5(C)CC[C@H](O)C(C)(C)[C@@H]5CC[C@]43C)[C@@H]12 [listing 1 of 2 here] | 4.67 |  |  |  |  | 4.47 | 4.61 | 4.47 | 4.34 | 
3 | CC(=O)O[C@H]1CC[C@]2(C)[C@H]3CC[C@@H]4C5=C(C(C)C)C(=O)C[C@]5(C(=O)OCCN5CCCC5)CC[C@@]4(C)[C@]3(C)CC[C@H]2C1(C)C | 4.88 | 5.14 | 5.11 | 5.19 | 4.72 |  |  |  |  | 
4 | CC(=O)OC[C@H]1O[C@@H](OC(=O)[C@@]23CC[C@]4(C)[C@H](CC[C@@H]5[C@@]6(C)CC[C@H](OC(C)=O)C(C)(C)[C@@H]6CC[C@]54C)C2=C(C(C)C)C(=O)C3)[C@H](OC(C)=O)[C@@H](OC(C)=O)[C@H]1OC(C)=O | 5.35 | 5.43 | 4.35 | 5.51 | 4.50 |  |  |  |  | 
5 | CC(C)[C@@H]1CC[C@]2(C(=O)OCCN3CCCC3)CC[C@]3(C)[C@H](CC[C@@H]4[C@@]5(C)CC[C@H](O)C(C)(C)[C@@H]5CC[C@]43C)[C@@H]12 | 5.55 | 4.99 | 5.11 | 5.09 | 4.77 |  |  |  |  | 
6 | CC(=O)OC[C@H]1O[C@@H](OC(=O)[C@]2(COC(C)=O)CC[C@]3(C)[C@H](CC[C@@H]4[C@@]5(C)CC[C@H](OC(C)=O)C(C)(C)[C@@H]5CC[C@]43C)[C@@H]2O)[C@H](OC(C)=O)[C@@H](OC(C)=O)[C@H]1OC(C)=O | < 4.30 | < 4.30 | < 4.30 | < 4.30 | < 4.30 |  |  |  |  | 
7 | CC(C)[C@@H]1CC[C@]2(C(=O)OCCBr)CC[C@]3(C)[C@H](CC[C@@H]4[C@@]5(C)CC[C@H](O)C(C)(C)[C@@H]5CC[C@]43C)[C@@H]12 | 4.45 | 4.34 | 4.67 | 4.37 | 4.44 |  |  |  |  | 
8 | CC(C)[C@@H]1CC[C@]2(C(=O)OCC(=O)OCc3ccccc3)CC[C@]3(C)[C@H](CC[C@@H]4[C@@]5(C)CC[C@H](O)C(C)(C)[C@@H]5CC[C@]43C)[C@@H]12 | 4.62 | < 4.30 | < 4.30 | < 4.30 | < 4.30 |  |  |  |  | 
9 | C=C(C)[C@@H]1CC[C@]2(C(=O)OCCOCCOC)CC[C@]3(C)[C@H](CC[C@@H]4[C@@]5(C)CC[C@H](O)C(C)(C)[C@@H]5CC[C@]43C)[C@@H]12 | 4.51 | 4.44 | 4.84 | 4.57 | < 4.30 |  |  |  |  | 
10 | C=C(C)[C@@H]1CC[C@]2(C(=O)O[C@@H]3O[C@H](CO)[C@@H](O)[C@H](O)[C@H]3O)CC[C@]3(C)[C@H](CC[C@@H]4[C@@]5(C)CC[C@H](O)C(C)(C)[C@@H]5CC[C@]43C)[C@@H]12 | < 4.30 | < 4.30 | < 4.30 | < 4.30 | < 4.30 |  |  |  |  | 
11 | CC(=O)O[C@H]1CC[C@]2(C)[C@H]3CC[C@@H]4C5=C(C(C)C)C(=O)C[C@]5(C(=O)OCCN5CCOCC5)CC[C@@]4(C)[C@]3(C)CC[C@H]2C1(C)C | 4.90 | 4.84 | 4.79 | 5.15 | 4.37 |  |  |  |  | 
12 | C=C(C)[C@@H]1CC[C@]2(C(=O)OCCN3CCCCC3)CC[C@]3(C)[C@H](CC[C@@H]4[C@@]5(C)CC[C@H](O)C(C)(C)[C@@H]5CC[C@]43C)[C@@H]12 [listing 2 of 2 here] |  | 4.48 | 4.62 | 4.54 | 4.36 |  |  |  |  | 4.58
13 | CC(=O)OC[C@@]1(C(=O)OCCBr)CC[C@]2(C)[C@H](CC[C@@H]3[C@@]4(C)CC[C@H](OC(C)=O)C(C)(C)[C@@H]4CC[C@]32C)C1=O | < 4.30 | < 4.30 | < 4.30 | < 4.30 | < 4.30 |  |  |  |  | 
14 | CC(C)[C@@H]1CC[C@]2(C(=O)OCCN3CCOCC3)CC[C@]3(C)[C@H](CC[C@@H]4[C@@]5(C)CC[C@H](O)C(C)(C)[C@@H]5CC[C@]43C)[C@@H]12 | 4.34 | 4.42 | 4.50 | 4.47 | 4.43 |  |  |  |  | 
15 | C=C(C)[C@@H]1CC[C@]2(C(=O)OCC(=O)OCc3ccccc3)CC[C@]3(C)[C@H](CC[C@@H]4[C@@]5(C)CC[C@H](O)C(C)(C)[C@@H]5CC[C@]43C)[C@@H]12 | 4.66 | < 4.30 | < 4.30 | 4.65 | < 4.30 |  |  |  |  | 
16 | C=C(C)[C@@H]1CC[C@]2(C(=O)OCCOC)CC[C@]3(C)[C@H](CC[C@@H]4[C@@]5(C)CC[C@H](O)C(C)(C)[C@@H]5CC[C@]43C)[C@@H]12 | 4.48 | 4.45 | 4.49 | 4.52 | 4.36 |  |  |  |  | 
17 | CC(C)[C@@H]1CC[C@]2(C(=O)OCCN3CCCCC3)CC[C@]3(C)[C@H](CC[C@@H]4[C@@]5(C)CC[C@H](O)C(C)(C)[C@@H]5CC[C@]43C)[C@@H]12 |  | 4.50 | 4.57 | 4.49 | 4.35 |  |  |  |  | 4.71
18 | CC(=O)OC[C@H]1O[C@@H](OC(=O)[C@]2(COC(C)=O)CC[C@]3(C)[C@H](CC[C@@H]4[C@@]5(C)CC[C@H](OC(C)=O)C(C)(C)[C@@H]5CC[C@]43C)[C@@H]2O)[C@H](OC(C)=O)[C@@H](OC(C)=O)[C@@H]1OC(C)=O | < 4.30 | < 4.30 | < 4.30 | < 4.30 | 4.37 |  |  |  |  | 
19 | C=C(C)[C@@H]1CC[C@]2(C(=O)O[C@@H]3O[C@H](CO)[C@H](O)[C@H](O)[C@H]3O)CC[C@]3(C)[C@H](CC[C@@H]4[C@@]5(C)CC[C@H](O)C(C)(C)[C@@H]5CC[C@]43C)[C@@H]12 | < 4.30 | < 4.30 | < 4.30 | < 4.30 | < 4.30 |  |  |  |  | 
20 | CC(=O)OC[C@H]1O[C@@H](OC(=O)[C@]23CC[C@@H](C(C)C)[C@@H]2[C@H]2CC[C@@H]4[C@@]5(C)CC[C@H](O)C(C)(C)[C@@H]5CC[C@@]4(C)[C@]2(C)CC3)[C@H](OC(C)=O)[C@@H](OC(C)=O)[C@@H]1OC(C)=O | 4.73 | 4.86 | 4.81 | 5.09 | < 4.30 |  |  |  |  | 
21 | CC(=O)OC[C@@]1(C(=O)OCCN2CCCC2)CC[C@]2(C)[C@H](CC[C@@H]3[C@@]4(C)CC[C@H](OC(C)=O)C(C)(C)[C@@H]4CC[C@]32C)[C@@H]1O | 5.08 | 5.00 | 4.97 | 5.13 | 4.85 |  |  |  |  | 
22 | C=C(C)[C@@H]1CC[C@]2(C(=O)OCCN3CCCC3)CC[C@]3(C)[C@H](CC[C@@H]4[C@@]5(C)CC[C@H](O)C(C)(C)[C@@H]5CC[C@]43C)[C@@H]12 |  | 4.70 | 5.07 | 4.94 | 4.64 |  |  |  |  | 5.30
23 | C=C(C)[C@@H]1CC[C@]2(C(=O)OCC(=O)O)CC[C@]3(C)[C@H](CC[C@@H]4[C@@]5(C)CC[C@H](O)C(C)(C)[C@@H]5CC[C@]43C)[C@@H]12 | < 4.30 | < 4.30 | < 4.30 | < 4.30 | < 4.30 |  |  |  |  | 
24 | COCCOCCOC(=O)[C@@]12CC[C@]3(C)[C@H](CC[C@@H]4[C@@]5(C)CC[C@H](OC(C)=O)C(C)(C)[C@@H]5CC[C@]43C)C1=C(C(C)C)C(=O)C2 | 4.75 | 4.66 | 4.77 | 4.93 | < 4.30 |  |  |  |  | 
